Literature values as cited in paper PMC8197769 (Progress in retinal and eye research, 2020).
Where two headings read alike, the source gives them in different places. Values belong to the molecule of their own block, whether it stands above or below them.

How the values were obtained:
[1] = system: patients with geographic atrophy; conditions: ref Holz et al., 2018
[2] = system: patients with paroxysmal nocturnal hemoglobinuria
[3] = system: patients with geographic atrophy; conditions: ref Liao et al., 2020
drusen = conditions: intravitreal injection, preliminary studies; ref Chi et al., 2010
[4] = system: patients with geographic atrophy; conditions: intravitreal; ref Gensler et al., 2018
[5] = system: patients with geographic atrophy; conditions: ref Jaffe et al., 2020
[6] = intravitreal injection, phase I; ref NCT01255462
[7] = system: patients with geographic atrophy; conditions: 5 mg monthly vs. sham, 150 patients; ref NCT01527500

Molecule: lampalizumab: fragment of humanized monoclonal antibody, inhibits Factor D
phase III outcome for GA [1]: negative results

Molecule: pegcetacoplan
safety during prolonged and systemic clinical intervention ([2]; human, in vivo): acceptable safety profiles
efficacy in paroxysmal nocturnal hemoglobinuria ([2]; phase III, ref Apellis Pharmaceuticals, 2020, Castro et al.): showed efficacy
investigator-determined conversion to exudative AMD ([3]; every other month group (sham 1.2%)): 8.9%
investigator-determined conversion to exudative AMD ([3]; monthly group (sham 1.2%)): 20.9%

Molecule: compstatin
effect on drusen (drusen): may cause drusen regression

Molecule: CO[C@H]1C[C@@H]2CC[C@@H](C)[C@@](O)(O2)C(=O)C(=O)N2CCCC[C@H]2C(=O)O[C@H]([C@H](C)C[C@@H]2CC[C@@H](O)[C@H](OC)C2)CC(=O)[C@H](C)/C=C(\C)[C@@H](O)[C@@H](OC)C(=O)[C@H](C)C[C@H](C)/C=C/C=C/C=C/1C [sirolimus]
efficacy for GA [4]: did not suggest efficacy for GA

endophthalmitis [5]: no cases of endophthalmitis
Molecule: avacincaptad pegol

B1: tesidolumab: IgG1 antibody that prevents C5 cleavage (antibody, chains of the INN, looked up, V domains shown)
VH: EVQLVQSGAEVKKPGSSVKVSCKASGGTFSSYAISWVRQAPGQGLEWMGGIGPFFGTANYAQKFQGRVTITADESTSTAYMELSSLRSEDTAVYYCARDTPYFDYWGQGTLVTVSS
VL: SYELTQPLSVSVALGQTARITCSGDSIPNYYVYWYQQKPGQAPVLVIYDDSNRPSGIPERFSGSNSGNTATLTISRAQAGDEADYYCQSFDSSLNAEVFGGGTKLTVL
safety [6]: No significant safety events were seen
benefit for GA or vision [7]: No benefit
